According to PMC12584836, “Rubus caesius leaves and stems in antiaging skin care products: antityrosinase, anticollagenase, antimicrobial activity, and transdermal distribution of main phenolic acids” (Pharmaceutical Biology, 2025):
≈ marks a conversion by molar mass, not a printed value. Marks after values point to notes of the source that are not given here. One block for each compound: values may come before it.

Experiments:
[1] = test system: B. subtilis ATCC6633; experiment: Antibacterial broth microdilution; type: cell-based; conditions: Bacillus subtilis, standard
Experimental: (§1) Brain-heart infusion broth (BHI, Becton Dickinson) supplemented with 10% bovine serum was used for the cultivation of Streptococcus. […] Corynebacterium diphtheriae ZMF was cultured in Brain-heart infusion broth (BHI, Becton Dickinson) supplemented with 10% bovine serum under aerobic conditions at 37 °C for 72 h. Fungal strains-Candida albicans (ATCC10231), Candida albicans (ATCC26790), Candida [NT]200), Candida krusei (ATCC6258), Candida parapsilosis (ATCC22019) were grown in Sabourauda broth (SB, Becton Dickinson), under aerobic conditions at 37 °C for 72 h. For post-incubation viability assessment, BHI blood agar plates, MH agar plates, and Sabouraud agar plates were used. Active cultures were prepared by transferring cells from stock cultures into appropriate broth, as described above. […] Cultures were then diluted in the same broth to achieve an optical density corresponding to approximately 10^6 colony-forming units per milliliter (CFU/mL) for all bacteria strains except C. acnes and C. diphtheriae ZMF. […] [2014]). The minimum inhibitory concentration (MIC) was determined using the broth microdilution method in 96-well plates. Each well was filled with 100 μL of broth. […] These solutions were serially diluted and added to the first well of each row. Serial twofold dilutions were performed by transferring 100 μL from well to well up to the twelfth well, from which 100 μL was discarded. […] Ampicillin served as the reference standard, with concentrations ranging from 128 to 0.0625 μg/mL. Plates were incubated under the appropriate conditions at 37 °C for […] (Clostridium sp. was incubated anaerobically). MIC values were determined by visual observation and defined as the lowest extract concentration that prevented visible microbial growth. To determine the minimum bactericidal concentration (MBC), 100 μL from wells showing no visible growth were plated on agar media. […] The MBC was defined as the lowest concentration of extracts required to completely eliminate viable microorganisms (Hałasa et al. [2014]).

[2] = test system: C. acnes ATCC6919; experiment: Antibacterial broth microdilution; type: cell-based; conditions: Cutibacterium acnes, standard
Experimental: as §1

[3] = test system: C. diphtheriae; experiment: Antibacterial broth microdilution; type: cell-based; conditions: Corynebacterium diphtheriae, standard
Experimental: as §1

[4] = test system: M. catarrhalis PCM2340; experiment: Antibacterial broth microdilution; type: cell-based; conditions: Moraxella catarrhalis, standard
Experimental: as §1

[5] = test system: S. epidermidis ATCC14990; experiment: Antibacterial broth microdilution; type: cell-based; conditions: Staphylococcus epidermidis, standard
Experimental: as §1

[6] = test system: S. equinus ATCC15351; experiment: Antibacterial broth microdilution; type: cell-based; conditions: Streptococcus equinus, standard
Experimental: as §1

[7] = test system: Streptococcus β hemolytic group G; experiment: Antibacterial broth microdilution; type: cell-based; conditions: S. β-hemolytic group G, standard
Experimental: as §1

[8] = ABTS radical scavenging assay; type: biochemical
Experimental: (§2) Water and ethanol extracts from Rubus caesius leaves and stems were freshly prepared by dissolving the dry extract in water. The samples were tested at concentrations ranging from 1 to 1000 µg/mL. Ascorbic acid was used as the reference standard in both assays. All measurements were performed using a 96-well microplate reader (Epoch, BioTek System, Winooski, VT, USA). IC50 values for each extract were calculated using the GraphPad Prism 9 software (version 9.0.0, GraphPad Software, San Diego, CA, USA). Each test was performed in triplicate and repeated three times (n = 9).
The antioxidant activity of the Rubus caesius extracts was determined using ABTS radical scavenging method as described by Thring et al. ([2009]), with minor modifications according to Hering et al. ([2025]). The reaction mixture containing extracts or standard were incubated in the dark for 20 min at 30 °C. After incubation, absorbance was measured at 750 nm. The negative control sample consisted of the reaction mixture and water instead of extract or standard.

[9] = Molybdenum reduction (phosphomolybdenum) assay; type: biochemical
Experimental: as §2
The total reducing power of water and ethanol extracts from Rubus caesius was estimated according to the phosphomolybdenum method described by Prieto et al. ([1999]), with modifications by Hering et al. ([2025]). The samples (extract or standard) were mixed with the reagent solution and incubated at 90 °C for 90 min. After cooling, 250 µL of each reaction mixture was transferred to a 96-well microplate reader (Epoch, BioTek System, Winooski, VT, USA), and absorbance was measured at 700 nm. The negative control consisted of the reaction mixture and water.

[10] = Skin permeation from hydrogels in Franz diffusion cells; type: in vitro ADME; conditions: porcine skin
Experimental: Permeation experiments were conducted using Franz diffusion cells (Phoenix DB-6, ABL&E-JASCO, Wien, Austria), with a donor chamber area of 1 cm^2 and 10 mL acceptor chamber filled with phosphate-buffered saline (PBS, pH 7.4). The system was maintained at 37.0 ± 0.5 °C, and the acceptor solutions were continuously stirred.
Skin samples were wrapped in aluminum foil, frozen at −20 °C for no longer than three months. […] Skin impedance was measured by immersing the probe tips in the donor and acceptor chambers filled with PBS.
One gram of each hydrogel was applied to the donor chamber. All chambers were sealed with plastic stoppers to minimize evaporation. […] Phenolic acid concentrations were determined by HPLC.
J-shaped profiles and the following equations were used: (1) A=JSS(t−LT) where A is the cumulative amount permeated (μg·cm^−2) of tested phenolic acids permeating into the receptor compartment; JSS is the steady-state flux (μg·cm^−2·h^−1); t is the time (h), and LT is the lag time (h).
The steady-state flux was estimated from the slope of the linear portion of the plot of cumulative mass in the acceptor phase over time. The lag time (LT) was determined from the x-intercept of the linear portion of the plot of cumulative mass in the acceptor phase over time and was used to calculate the […] (KP) as follows: (2) KP=JSS/C where C is the concentration in the donor phase.

[11] = Skin accumulation after 24 h permeation; type: in vitro ADME; conditions: after 24-h penetration; HL-E application; porcine skin
Experimental: Following incubation, samples were homogenized (IKA®T18 digital ULTRA TURRAX, Germany) for 3 min and centrifuged at 3500 rpm for 5 min. The resulting supernatants were analyzed by HPLC spectrophotometry, with methanol used as a blank. Accumulated phenolic acids were expressed as amount (µg) per gram of skin tissue (µg·g skin^−1).

[12] = molecular target: Collagenase from Clostridium histolyticum; experiment: Collagenase inhibition assay (FALGPA substrate); type: biochemical
Experimental: Preparation of the extracts and calculation of IC50 values were carried out as described in the Antioxidant tests section. The effect of Rubus caesius extracts on collagenase and tyrosinase activity was estimated using the spectrophotometric method in a 96-well microplate reader (Epoch, BioTek System, Winooski, VT, USA).
The addition of the substrate started the reaction. Changes in absorbance were monitored every 20 s for a total of 20 min. The blank sample contained buffer, substrate, and the appropriate concentration of extract or standard. The negative control sample contained water instead of extract or standard. All tests were performed in triplicate and repeated three times (n = 9).
The effect of Rubus caesius extracts on collagenase activity was assessed based on the method described by Thring et al. ([2009]), with modifications introduced by Hering et al. ([2023]). FALGPA was used as the substrate, and oleanolic acid served as the positive control. Reaction mixtures containing the extract (0–400 µg/mL) were pre-incubated for 15 min. The reaction was initiated by the addition of 0.8 mM FALGPA, and absorbance was continuously measured at 335 nm. The reaction buffer was composed of tricine (50 mM, pH 7.5) with 400 mM NaCl and 10 mM CaCl2.

- MIC [1]: 0.4 µg/mL (≈ 1.14 µM)
- MIC [2]: 32 µg/mL (≈ 91.6 µM)
- MIC [3]: 16 µg/mL (≈ 45.8 µM)
- MIC [4]: 2.5 µg/mL (≈ 7.15 µM)
- MIC [5]: 0.3 µg/mL (≈ 0.859 µM)
- MIC [6]: 16 µg/mL (≈ 45.8 µM)
Compound: CC1(C)S[C@@H]2[C@H](NC(=O)[C@H](N)c3ccccc3)C(=O)N2[C@H]1C(=O)O [Ampicillin, ampicillin]
- MIC [7]: 16 µg/mL (≈ 45.8 µM)

- ABTS radical scavenging IC50 [8]: 14.77 ± 0.5 µg/mL
- Molybdenum reduction IC50 [9]: 78.25 ± 1.25 µg/mL
Compound: O=C1O[C@H]([C@@H](O)CO)C(O)=C1O [Ascorbic acid, ascorbic acid]

Compound: O=C(O)c1ccc(O)c(O)c1 [Protocatechuic acid, protocatechuic acid]
- Phenolic acids concentration in the acceptor fluid (cumulative mass) ([10]; from hydrogel HL-E, 2 h): 3.28 ± 0.31^a µg/cm^2
- Phenolic acids concentration in the acceptor fluid (cumulative mass) ([10]; from hydrogel HL-E, 3 h): 5.86 ± 0.28^a µg/cm^2
- Phenolic acids concentration in the acceptor fluid (cumulative mass) ([10]; from hydrogel HL-E, 5 h): 8.59 ± 0.65^a µg/cm^2
- Phenolic acids concentration in the acceptor fluid (cumulative mass) ([10]; from hydrogel HL-E, 8 h): 11.94 ± 1.91^a µg/cm^2
- Phenolic acids concentration in the acceptor fluid (cumulative mass) ([10]; from hydrogel HL-E, 24 h): 37.95 ± 2.96^a µg/cm^2
- Phenolic acids concentration in the acceptor fluid (cumulative mass) ([10]; from hydrogel HL-E, 24 h, listed as protocatechuic acid): 37.95 ± 2.96 µg/cm^2
- D·10^4, diffusion coefficient ([10]; from hydrogel HL-E): 6.57 ± 0.77 cm^2/h
- JSS, steady-state flux ([10]; from hydrogel HL-E): 2.10 ± 0.17 µg/cm^2·h
- LT, lag time ([10]; from hydrogel HL-E): 0.63 ± 0.08 h
- Q%24h, percentage of applied dose in acceptor phase after 24 h ([10]; from hydrogel HL-E): 4.49 ± 0.35%
- Q%24h, percentage of applied dose in acceptor phase after 24 h ([10]; from hydrogel HL-E, listed as protocatechuic acid): 4.49%
- Phenolic acids concentration in the acceptor fluid (cumulative mass) ([10]; from hydrogel HS-E, 5 h): 3.04 ± 0.03^a µg/cm^2
- Phenolic acids concentration in the acceptor fluid (cumulative mass) ([10]; from hydrogel HS-E, 8 h): 3.84 ± 0.18^b µg/cm^2
- Phenolic acids concentration in the acceptor fluid (cumulative mass) ([10]; from hydrogel HS-E, 24 h): 4.57 ± 0.30^b µg/cm^2
- D·10^4, diffusion coefficient ([10]; from hydrogel HS-E): 1.91 ± 0.09 cm^2/h
- JSS, steady-state flux ([10]; from hydrogel HS-E): 0.73 ± 0.04 µg/cm^2·h
- LT, lag time ([10]; from hydrogel HS-E): 2.19 ± 0.10 h
- Q%24h, percentage of applied dose in acceptor phase after 24 h ([10]; from hydrogel HS-E): 2.45 ± 0.16%
- Accumulation of phenolic acid in the skin [11]: 61.46 ± 12.57 µg/g skin

Compound: CC1(C)CC[C@]2(C(=O)O)CC[C@]3(C)C(=CC[C@@H]4[C@@]5(C)CC[C@H](O)C(C)(C)[C@@H]5CC[C@]43C)[C@@H]2C1 [oleanolic acid]
- IC50 of collagenase inhibition [12]: 31.72 ± 0.65 µg/mL
